Where two headings read alike, the source gives them in different places.
Assays:
[1] = tested on: Biofilms of P. aeruginosa ATCC 10145; test: Efficacy against biofilm associated bacteria (Calgary biofilm device, viable sessile bacteria); assay type: cell-based; details: pH 8.5, 37° C.
Protocol: Biofilms of P. aeruginosa ATCC 10145 are grown in Calgary biofilm devices (Innovotech, Alberta, Canada) for 42 hours. Trypticase Soy Broth (TSB) is used in the biofilm devices as the culture medium. After the incubation period, loosely associated cells are removed from the biofilms that develop on the surfaces of the submerged pegs by rinsing with sterile 0.85% NaCl. The biofilms are than treated with DBMAL (inventive biocide), glutaraldehyde (comparative biocide), or DBNPA (comparative biocide). A dilute salts solution is used as the test medium for the efficacy studies. The salts solution contains (in grams per liter of deionized water) CaCl2, 0.2203 g; MgSO4, 0.1847 g; and NaHCO3, 0.2033 g. The final pH of the solution is adjusted to 8.5.
The concentrations of each active tested are 100 ppm, 50 ppm, 25 ppm, 12.5 ppm in the salts solution and the contact times are for 4 hours, 24 hours and 48 hours, respectively. In all cases, the incubation temperature is 37° C. Sterile deionized water is used as a non-biocide treated control. After each contact time, the pegs are washed with sterile 0.85% NaCl and the bacteria are released from the biofilm on the surface of each peg into sterile 0.85% NaCl by sonication (see Ceri et al., Journal of Clinical Microbiology 1999, 37: 1771-1776). The viable bacteria are then enumerated in TSB, using a serial dilution method.

[2] = tested on: Biofilms of P. aeruginosa ATCC 10145; test: Biofilm removal evaluation (crystal violet, OD 580 nm); assay type: cell-based; details: 25, 50, 100 ppm, 4 hr and 24 hr, 37° C.
Protocol: The Calgary biofilm device is used to prepare biofilms of P. aeruginosa ATCC 10145. TSB is used as the culture medium and biofilms are allowed to develop over a period of 42 hours. […] Concentrations of the actives tested are 25 ppm, 50 ppm, 100 ppm in sterile diluted salts solution as the test medium. The treatment is conducted at 37° C. for 4 hr and 24 hr, respectively. Sterile deionized water is used as an untreated control. After treatment, the pegs are washed with sterile 0.85% NaCl and then the biomass/biofilm on each peg is measured (see Stepanovic et al., Journal of Microbiological Methods, 2000, 40, 175-179). First the biofilm is fixed with 99% methanol and, after air drying, the pegs are stained with 2% (w/v) crystal violet and washed with tap water. The pegs are then air dried and the crystal violet bound to the biofilm is extracted with 33% glacial acetic acid. The optical density (OD) of the extracted solution is measured at 580 nm. The results are depicted in FIG. 2.

[3] = tested on: amoeba fed Legionella pneumophila (AfLp); assay type: cell-based; details: for Active concentration required for complete kill (6 log reduction): Amoeba fed Legionella
[4] = buffer
[5] = Stability against hydrolysis (HPLC level remaining in buffered dilute solutions)
Free Legionella = assay type: cell-based, Legionella pneumophila

For NC(=O)C(Br)(Br)C(N)=O [DBMAL, 2,2-Dibromomalonamide], the “effectiveness against sessile bacteria (reduction of viable sessile bacteria)” value ([1]; 12.5-100 ppm, 4, 24 and 48 hours, in general) was “more effective than DBNPA”, the “effectiveness against sessile bacteria (reduction of viable sessile bacteria)” value ([1]; 25 ppm active concentration, efficacy increases with contact time) was “very effective” and the biofilm removal [2] was “overall better biofilm removal than DBNPA”. The “level needed for 6 log kill of AfLp relative to that needed for free cells” value ([3]; corresponding time points (2 and 24 hours)) was “about twice”, the “level remaining (HPLC)” value ([4]; 0 h, pH 6.9) was 3746 and the “level remaining (HPLC)” value ([4]; 0 h, pH 8) was 3866. The “level remaining (HPLC)” value ([4]; 0 h, pH 9) was 4576, the “level remaining (HPLC)” value ([4]; 2 h, pH 6.9) was 4612 and the “level remaining (HPLC)” value ([4]; 2 h, pH 8) was 4031. The “level remaining (HPLC)” value ([4]; 2 h, pH 9) was 4022, the “level remaining (HPLC)” value ([4]; 24 h, pH 6.9) was 3857 and the “level remaining (HPLC)” value ([4]; 24 h, pH 8) was 4191. The “level remaining (HPLC)” value ([4]; 24 h, pH 9) was 3891, the “level remaining (HPLC)” value ([4]; 48 h, pH 6.9) was 3935 and the “level remaining (HPLC)” value ([4]; 48 h, pH 8) was 4187. For the same compound, the “level remaining (HPLC)” value ([4]; 48 h, pH 9) was 3603, the “level remaining (HPLC)” value ([4]; 72 h, pH 6.9) was 3966 and the “level remaining (HPLC)” value ([4]; 72 h, pH 8) was 4290. The “level remaining (HPLC)” value ([4]; 72 h, pH 9) was 4018, the “level remaining (HPLC)” value ([4]; 96 h, pH 6.9) was 4212 and the “level remaining (HPLC)” value ([4]; 96 h, pH 8) was 3883. The “level remaining (HPLC)” value ([4]; 96 h, pH 9) was 3456, the “Calculated Percent Reduction of the Active Ingredient” value (“Calculated Percent Reduction” below) ([5]; pH 6.9, T = 30 C., 48 hours) was 0% and the “Calculated Percent Reduction” value ([5]; pH 6.9, T = 30 C., 72 hours) was 0%. The “Calculated Percent Reduction” value ([5]; pH 8, T = −1 C., 48 hours) was 0%, the “Calculated Percent Reduction” value ([5]; pH 8, T = −1 C., 72 hours) was 0% and the “Calculated Percent Reduction” value ([5]; pH 8, T = −1 C., 96 hours) was 0%. For the same compound, the “Calculated Percent Reduction” value ([5]; pH 9, T = −1 C., 48 hours) was 21%, the “Calculated Percent Reduction” value ([5]; pH 9, T = −1 C., 72 hours) was 12% and the “Calculated Percent Reduction” value ([5]; pH 9, T = −1 C., 96 hours) was 24%.

In the case of N#CC(Br)(Br)C(N)=O [DBNPA, 2,2-Dibromo-3-nitrilopropionamide], the “level remaining (HPLC)” value ([5]; pH 6.9, T = 30 C., 0 hours) is reported as 3991, the “level remaining (HPLC)” value ([5]; pH 6.9, T = 30 C., 2 hours) is reported as 4155 and the “level remaining (HPLC)” value ([5]; pH 6.9, T = 30 C., 24 hours) is reported as 2557. The “level remaining (HPLC)” value ([5]; pH 6.9, T = 30 C., 48 hours) was 1361, the “level remaining (HPLC)” value ([5]; pH 6.9, T = 30 C., 72 hours) was 918 and the “level remaining (HPLC)” value ([5]; pH 6.9, T = 30 C., 96 hours) was 658. For the same compound, the “level remaining (HPLC)” value ([5]; pH 8, T = −1 C., 0 hours) was 4068, the “level remaining (HPLC)” value ([5]; pH 8, T = −1 C., 2 hours) was 3998 and the “level remaining (HPLC)” value ([5]; pH 8, T = −1 C., 24 hours) was 3506. The “level remaining (HPLC)” value ([5]; pH 8, T = −1 C., 48 hours) was 3578, the “level remaining (HPLC)” value ([5]; pH 8, T = −1 C., 72 hours) was 3149 and the “level remaining (HPLC)” value ([5]; pH 8, T = −1 C., 96 hours) was 3070. For the same compound, the “level remaining (HPLC)” value ([5]; pH 9, T = −1 C., 0 hours) was 3842, the “level remaining (HPLC)” value ([5]; pH 9, T = −1 C., 2 hours) was 2818 and the “level remaining (HPLC)” value ([5]; pH 9, T = −1 C., 24 hours) was 1256. For the same compound, the “level remaining (HPLC)” value ([5]; pH 9, T = −1 C., 48 hours) was 659, the “level remaining (HPLC)” value ([5]; pH 9, T = −1 C., 72 hours) was 363 and the “level remaining (HPLC)” value ([5]; pH 9, T = −1 C., 96 hours) was 239.

For CCCCCCCCCC[N+](C)(C)CCCCCCCCCC.[Cl-] [DDAC, didecyl dimethyl ammonium chloride], the “Active concentration required for complete kill (6 log reduction)” value (Free Legionella; 2 hours exposure) was 20 ppm, the “Active concentration required for complete kill (6 log reduction)” value (Free Legionella; 24 hours exposure) was 15 ppm and the “Active concentration required for complete kill (6 log reduction)” value ([3]; 2 hours exposure) was 60 ppm. For the same compound, the “Active concentration required for complete kill (6 log reduction)” value ([3]; 24 hours exposure) was 40 ppm.

In the case of O=CCCCC=O [Glutaraldehyde], the “effectiveness against sessile bacteria (reduction of viable sessile bacteria)” value ([1]; 50 ppm active concentration, 48 h treatment) is reported as “low effectiveness”, the “Active concentration required for complete kill (6 log reduction)” value (Free Legionella; 2 hours exposure) is reported as 10 ppm and the “Active concentration required for complete kill (6 log reduction)” value (Free Legionella; 24 hours exposure) is reported as 5 ppm. The “Active concentration required for complete kill (6 log reduction)” value ([3]; 2 hours exposure) was 20 ppm and the “Active concentration required for complete kill (6 log reduction)” value ([3]; 24 hours exposure) was 15 ppm.

From patent publication US20100314319A1, “HALOGENATED AMIDES AS BIOCIDES FOR BIOFILM CONTROL” (priority 2009, published 2010)
